Source: US8871753B2, “Macrocyclic compounds and their use as kinase inhibitors” (Incyte Corporation, priority 2008, dated 2014)
Structures can show the parent of a compound that is named as a salt.

Columns and labels:
Type in all cases: biochemical
[1] = molecular target: T1, human JAK1 (a.a. 837-1142) (Homo sapiens, UniProt P23458); assay: In vitro JAK kinase assay (HTRF, phosphorylation of a biotinylated peptide), JAK1; conditions: Table B1; read-out: JAK1 IC50
T1 construct: human JAK1 (a.a. 837-1142); His tag (N); made in house; host or cells: insect cells (baculovirus)
Outline: (§1)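 Kinase activity was measured as phosphorylation of a biotinylated peptide, with ATP at 90 μM for JAK1, 30 μM for JAK2 and 3 μM for JAK3. Reactions ran 1 hr at room temperature, were stopped with EDTA plus SA-APC and Eu-Py20, and were read by HTRF after 40 minutes of antibody binding.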

[2] = molecular target: T2, human JAK2 (a.a. 828-1132) (Homo sapiens, UniProt O60674); assay: In vitro JAK kinase assay (HTRF, phosphorylation of a biotinylated peptide), JAK2; conditions: Table B1
T2 construct: JAK2 (a.a. 828-1132); His tag (N); made in house; host or cells: insect cells (baculovirus)
Outline: as §1

[3] = molecular target: T3, human JAK3 (a.a. 781-1124) (Homo sapiens, UniProt P52333); assay: In vitro JAK kinase assay (HTRF, phosphorylation of a biotinylated peptide), JAK3; conditions: Table B1
T3 construct: JAK3 (a.a. 781-1124); His tag (N); made in house; host or cells: insect cells (baculovirus)
Outline: as §1

TYK2 = TYK2 (Homo sapiens, UniProt P29597); assay: TYK2 kinase inhibition (Table A1); conditions: Table B1
[4] = molecular target: T4, Recombinant Human Anaplastic Lymphoma Kinase (Homo sapiens, UniProt Q9UM73); assay: ALK HTRF kinase assay; conditions: for ALK % of inhibition at a concentration of 500 nM or 1 mM: compound at a concentration of 500 nM or 1 mM (not specified), cells shown as percentage
T4 construct: purchased Invitrogen, Carlsbad, Calif
Outline: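 Recombinant human ALK phosphorylated a biotinylated synthetic peptide. Phosphotyrosine was detected by TR-FRET between a Eu-labelled anti-phosphotyrosine antibody and streptavidin-allophycocyanin. IC50 values came from fitting signal against inhibitor concentration to a four-parameter logistic equation with variable Hill slope.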

T4 sequence (Q9UM73 19-1620): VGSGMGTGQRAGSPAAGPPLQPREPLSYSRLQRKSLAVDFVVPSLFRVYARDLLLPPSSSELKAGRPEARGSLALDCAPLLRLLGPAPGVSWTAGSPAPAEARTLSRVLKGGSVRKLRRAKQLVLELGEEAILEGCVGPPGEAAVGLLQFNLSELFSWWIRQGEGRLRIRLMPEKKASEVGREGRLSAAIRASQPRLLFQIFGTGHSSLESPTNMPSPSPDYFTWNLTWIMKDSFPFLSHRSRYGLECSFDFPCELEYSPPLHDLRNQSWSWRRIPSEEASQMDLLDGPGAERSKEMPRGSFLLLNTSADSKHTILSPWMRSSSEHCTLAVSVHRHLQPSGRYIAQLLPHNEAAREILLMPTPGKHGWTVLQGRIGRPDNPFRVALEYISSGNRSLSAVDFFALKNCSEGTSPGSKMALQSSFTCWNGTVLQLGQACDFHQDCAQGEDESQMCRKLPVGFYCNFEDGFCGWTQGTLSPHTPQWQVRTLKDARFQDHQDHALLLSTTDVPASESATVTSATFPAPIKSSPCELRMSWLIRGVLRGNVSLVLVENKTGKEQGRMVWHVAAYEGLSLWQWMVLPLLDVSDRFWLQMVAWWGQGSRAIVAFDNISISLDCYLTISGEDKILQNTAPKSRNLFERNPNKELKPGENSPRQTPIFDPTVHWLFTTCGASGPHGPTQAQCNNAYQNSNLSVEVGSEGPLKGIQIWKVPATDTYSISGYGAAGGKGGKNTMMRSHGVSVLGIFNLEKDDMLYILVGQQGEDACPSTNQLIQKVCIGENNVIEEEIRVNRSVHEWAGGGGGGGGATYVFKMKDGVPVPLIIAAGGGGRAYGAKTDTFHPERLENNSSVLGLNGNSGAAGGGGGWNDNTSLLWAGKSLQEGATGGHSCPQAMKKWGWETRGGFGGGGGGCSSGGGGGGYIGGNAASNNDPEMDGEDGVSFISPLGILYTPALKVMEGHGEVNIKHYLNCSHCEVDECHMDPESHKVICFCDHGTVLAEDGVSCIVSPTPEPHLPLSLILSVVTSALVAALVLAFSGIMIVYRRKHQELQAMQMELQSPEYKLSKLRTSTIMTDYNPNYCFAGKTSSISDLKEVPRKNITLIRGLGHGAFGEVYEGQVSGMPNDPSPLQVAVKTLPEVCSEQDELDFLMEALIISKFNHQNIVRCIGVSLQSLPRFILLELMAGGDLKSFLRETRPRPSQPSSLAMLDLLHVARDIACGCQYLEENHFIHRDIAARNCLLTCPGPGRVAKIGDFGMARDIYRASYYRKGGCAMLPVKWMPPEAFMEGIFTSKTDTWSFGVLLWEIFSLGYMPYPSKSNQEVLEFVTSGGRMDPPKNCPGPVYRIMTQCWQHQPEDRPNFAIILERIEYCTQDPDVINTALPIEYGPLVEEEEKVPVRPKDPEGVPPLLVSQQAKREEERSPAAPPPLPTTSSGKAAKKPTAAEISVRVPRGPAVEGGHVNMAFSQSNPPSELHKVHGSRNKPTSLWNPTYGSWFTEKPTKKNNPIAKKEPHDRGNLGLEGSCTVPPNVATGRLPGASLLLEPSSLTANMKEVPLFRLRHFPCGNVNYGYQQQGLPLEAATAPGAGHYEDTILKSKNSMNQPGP
T2 sequence (O60674 828-1132): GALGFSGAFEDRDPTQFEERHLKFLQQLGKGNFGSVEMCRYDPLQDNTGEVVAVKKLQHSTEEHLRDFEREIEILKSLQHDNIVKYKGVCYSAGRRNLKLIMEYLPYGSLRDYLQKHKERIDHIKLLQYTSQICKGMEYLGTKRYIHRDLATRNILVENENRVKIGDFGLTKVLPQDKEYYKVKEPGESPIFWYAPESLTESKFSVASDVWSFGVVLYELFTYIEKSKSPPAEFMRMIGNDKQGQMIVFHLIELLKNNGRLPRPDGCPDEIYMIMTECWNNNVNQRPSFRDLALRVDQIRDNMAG
T3 sequence (P52333 781-1124): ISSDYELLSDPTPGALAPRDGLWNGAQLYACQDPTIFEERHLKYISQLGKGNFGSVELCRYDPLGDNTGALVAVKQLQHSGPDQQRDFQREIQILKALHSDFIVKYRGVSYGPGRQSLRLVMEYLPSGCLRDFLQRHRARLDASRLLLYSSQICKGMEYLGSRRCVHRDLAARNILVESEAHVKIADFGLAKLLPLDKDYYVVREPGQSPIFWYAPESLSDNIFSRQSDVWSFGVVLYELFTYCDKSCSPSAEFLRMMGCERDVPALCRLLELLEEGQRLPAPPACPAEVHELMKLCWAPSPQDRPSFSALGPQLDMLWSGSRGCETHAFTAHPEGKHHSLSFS
T1 sequence (P23458 849-1154): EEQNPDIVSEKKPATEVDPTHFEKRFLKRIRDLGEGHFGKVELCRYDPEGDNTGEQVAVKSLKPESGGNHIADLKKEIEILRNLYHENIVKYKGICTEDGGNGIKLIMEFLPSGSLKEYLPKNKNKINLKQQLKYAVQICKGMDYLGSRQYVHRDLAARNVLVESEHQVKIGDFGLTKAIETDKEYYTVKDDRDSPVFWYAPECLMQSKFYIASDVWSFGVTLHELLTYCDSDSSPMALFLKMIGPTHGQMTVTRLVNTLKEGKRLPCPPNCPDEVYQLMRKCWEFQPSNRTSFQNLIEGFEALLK
Chain of TYK2 (P29597 whole entry): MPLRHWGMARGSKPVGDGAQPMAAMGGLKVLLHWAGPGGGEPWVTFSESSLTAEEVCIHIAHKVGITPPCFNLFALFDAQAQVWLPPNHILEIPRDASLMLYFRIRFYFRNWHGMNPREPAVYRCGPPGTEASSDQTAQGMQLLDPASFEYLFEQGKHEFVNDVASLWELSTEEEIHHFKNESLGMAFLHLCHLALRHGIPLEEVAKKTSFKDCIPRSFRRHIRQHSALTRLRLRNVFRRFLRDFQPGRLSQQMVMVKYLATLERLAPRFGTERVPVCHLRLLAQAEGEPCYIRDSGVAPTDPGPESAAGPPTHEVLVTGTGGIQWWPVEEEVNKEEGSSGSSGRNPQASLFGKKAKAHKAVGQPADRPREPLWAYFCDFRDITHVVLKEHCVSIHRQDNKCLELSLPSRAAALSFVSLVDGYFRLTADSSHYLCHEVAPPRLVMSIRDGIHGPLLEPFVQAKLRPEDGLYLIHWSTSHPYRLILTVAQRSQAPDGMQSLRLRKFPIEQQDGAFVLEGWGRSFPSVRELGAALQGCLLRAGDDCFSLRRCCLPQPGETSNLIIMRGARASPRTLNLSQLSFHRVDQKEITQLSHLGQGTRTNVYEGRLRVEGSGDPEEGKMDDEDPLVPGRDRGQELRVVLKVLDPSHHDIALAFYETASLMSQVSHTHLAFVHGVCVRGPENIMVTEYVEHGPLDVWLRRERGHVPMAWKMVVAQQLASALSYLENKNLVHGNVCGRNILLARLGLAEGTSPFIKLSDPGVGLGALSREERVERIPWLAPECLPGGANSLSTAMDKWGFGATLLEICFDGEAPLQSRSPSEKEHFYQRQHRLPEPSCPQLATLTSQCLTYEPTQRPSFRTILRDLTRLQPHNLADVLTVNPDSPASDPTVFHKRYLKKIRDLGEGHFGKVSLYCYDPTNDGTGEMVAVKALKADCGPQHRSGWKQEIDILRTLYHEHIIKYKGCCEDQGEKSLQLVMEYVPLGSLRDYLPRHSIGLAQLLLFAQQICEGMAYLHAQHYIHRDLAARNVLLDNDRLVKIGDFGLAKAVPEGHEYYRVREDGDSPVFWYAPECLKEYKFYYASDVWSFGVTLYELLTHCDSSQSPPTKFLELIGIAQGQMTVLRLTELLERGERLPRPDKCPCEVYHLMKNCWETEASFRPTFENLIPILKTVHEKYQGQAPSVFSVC

| Structure (SMILES) | IC50 [1] [nM] | IC50 [2] [nM] | IC50 [3] [nM] | IC50 (TYK2) [nM] | ALK % of inhibition at a concentration of 500 nM or 1 mM [4] [%] | IC50 ([4]; Table B1, cells without percent sign) [nM] |
| --- | --- | --- | --- | --- | --- | --- |
| Cc1cc(C(=O)Nc2ccc3cc2CCc2cccc(c2)Nc2ncc(Cl)c(n2)N3)no1 [Example B68, N-[6-Chloro-2,4,8,22-tetraazatetracyclo[14.3.1.1(3,7).1(9,13)]docosa-1(20), 3(22),4,6,9(21),10,12,16,18-nonaen-12-yl]-5-methylisoxazole-3-carboxamide trifluoroacetate] | 1.4 | 2.3 | 19 | 3.6 | 19 |  |
| O=C(Nc1ccc2cc1CCc1cccc(c1)Nc1ncc(Cl)c(n1)N2)c1ccc2c(c1)OCO2 [Example B71, N-[6-Chloro-2,4,8,22-tetraazatetracyclo[14.3.1.1(3,7).1(9,13)]docosa-1(20), 3(22),4,6,9(21),10,12,16,18-nonaen-12-yl]-1,3-benzodioxole-5-carboxamide trifluoroacetate] | 1.9 | 4.9 | 24 | 9.6 | 43 |  |
| O=C(Nc1ccc2cc1CCc1cccc(c1)Nc1ncc(Cl)c(n1)N2)c1cnc2ccccc2n1 [Example B72, N-[6-Chloro-2,4,8,22-tetraazatetracyclo[14.3.1.1(3,7).1(9,13)]docosa-1(20), 3(22),4,6,9(21),10,12,16,18-nonaen-12-yl]quinoxaline-2-carboxamide bis(trifluoroacetate)] | 200 | 55 | > 500 | 77 | 12 |  |
| Cc1ncoc1C(=O)Nc1ccc2cc1CCc1cccc(c1)Nc1ncc(Cl)c(n1)N2 [Example B78, N-[6-Chloro-2,4,8,22-tetraazatetracyclo[14.3.1.1(3,7).1(9,13)]docosa-1(20),3(22),4,6,9(21),10,12,16,18-nonaen-12-yl]-4-methyl-1,3-oxazole-5-carboxamide trifluoroacetate] | 11 | 12 | 57 | 29 | 44 |  |
| O=C(Nc1ccc2cc1CCc1cccc(c1)Nc1ncc(Cl)c(n1)N2)c1ccc2occc2c1 [Example B79, N-[6-Chloro-2,4,8,22-tetraazatetracyclo[14.3.1.1(3,7).1(9,13)]docosa-1(20), 3(22),4,6,9(21),10,12,16,18-nonaen-12-yl]-1-benzofuran-5-carboxamide trifluoroacetate] | 0.83 | 0.58 | 2.8 | 1.7 | 91 |  |
| O=C(Nc1ccc2cc1CCc1cccc(c1)Nc1ncc(Cl)c(n1)N2)c1cnn2ccccc12 [Example B80, N-[6-Chloro-2,4,8,22-tetraazatetracyclo[14.3.1.1(3,7).1(9,13)]docosa-1(20),3(22),4,6,9(21),10,12,16,18-nonaen-12-yl]pyrazolo[1,5-a]pyridine-3-carboxamide bis(trifluoroacetate)] | 0.56 | 0.53 | 1.7 | 1.2 | 73 |  |
| CN(C)c1ccc(C(=O)Nc2ccc3cc2CCc2cccc(c2)Nc2ncc(Cl)c(n2)N3)cc1 [Example B82, N-[6-Chloro-2,4,8,22-tetraazatetracyclo[14.3.1.1(3,7).1(9,13)]docosa-1(20), 3(22),4,6,9(21),10,12,16,18-nonaen-12-yl]-4-(dimethylamino)benzamide bis(trifluoroacetate)] | 7.9 | 7.6 | 44 | 14 | 39 |  |
| O=C(Nc1ccccc1)Nc1ccc2cc1CCc1cccc(c1)Nc1ncc(Cl)c(n1)N2 [Example B83, N-[6-Chloro-2,4,8,22-tetraazatetracyclo[14.3.1.1(3,7).1(9,13)]docosa-1(20), 3(22),4,6,9(21),10,12,16,18-nonaen-12-yl]-N′-phenylurea trifluoroacetate] | 0.56 | 1.7 | 27 | 5.2 |  | 780 |

Results, then the compound that gave them:

| IC50 [1] [nM] | IC50 [2] [nM] | IC50 [3] [nM] | IC50 (TYK2) [nM] | ALK % of inhibition at a concentration of 500 nM or 1 mM [4] [%] | IC50 ([4]; Table B1, cells without percent sign) [nM] | Structure (SMILES) |
| --- | --- | --- | --- | --- | --- | --- |
| 0.45 | 0.6 | 3.6 | 2.3 | 68 |  | O=C(Nc1ccc2cc1CCc1cccc(c1)Nc1ncc(Cl)c(n1)N2)c1ccc(Cl)nc1 [Example B69, 6-Chloro-N-[6-chloro-2,4,8,22-tetraazatetracyclo[14.3.1.1(3,7).1(9,13)]docosa-1(20),3(22),4,6,9(21),10,12,16,18-nonaen-12-yl]nicotinamide bis(trifluoroacetate)] |
| 1.5 | 0.64 | 2.4 | 2.5 | 82 |  | O=C(Nc1ccc2cc1CCc1cccc(c1)Nc1ncc(Cl)c(n1)N2)c1cccnc1Cl [Example B70, 2-Chloro-N-[6-chloro-2,4,8,22-tetraazatetracyclo[14.3.1.1(3,7).1(9,13)]docosa-1(20),3(22),4,6,9(21),10,12,16,18-nonaen-12-yl]nicotinamide bis(trifluoroacetate)] |
| 80 | 103 | 178 | 154 | 21 |  | CC(C)(C)c1ccc(C(=O)Nc2ccc3cc2CCc2cccc(c2)Nc2ncc(Cl)c(n2)N3)cc1 [Example B73, 4-tert-Butyl-N-[6-chloro-2,4,8,22-tetraazatetracyclo[14.3.1.1(3,7).1(9,13)]docosa-1(20),3(22),4,6,9(21),10,12,16,18-nonaen-12-yl]benzamide trifluoroacetate] |
| 4.7 | 30 | 80 | 30 | 17 |  | O=C(Nc1ccc2cc1CCc1cccc(c1)Nc1ncc(Cl)c(n1)N2)c1ccc(C(F)(F)F)cc1 [Example B75, N-[6-Chloro-2,4,8,22-tetraazatetracyclo[14.3.1.1(3,7).1(9,13)]docosa-1(20), 3(22),4,6,9(21),10,12,16,18-nonaen-12-yl]-4-(trifluoromethyl)benzamide trifluoroacetate] |
| 33 | 14 | 61 | 25 | 28 |  | O=C(Nc1ccc2cc1CCc1cccc(c1)Nc1ncc(Cl)c(n1)N2)c1cccc(C(F)(F)F)c1 [Example B76, N-[6-Chloro-2,4,8,22-tetraazatetracyclo[14.3.1.1(3,7).1(9,13)]docosa-1(20), 3(22),4,6,9(21),10,12,16,18-nonaen-12-yl]-3-(trifluoromethyl)benzamide trifluoroacetate] |
| 0.84 | 2.2 | 7.6 | 8 | 54 |  | O=C(Nc1ccc2cc1CCc1cccc(c1)Nc1ncc(Cl)c(n1)N2)c1ccc(C(F)(F)F)nc1 [Example B77, N-[6-Chloro-2,4,8,22-tetraazatetracyclo[14.3.1.1(3,7).1(9,13)]docosa-1(20), 3(22),4,6,9(21),10,12,16,18-nonaen-12-yl]-6-(trifluoromethyl)nicotinamide bis(trifluoroacetate)] |
